{"source": "patent US20230313318A1", "about": "“MICR[…] METHOD OF USE THEREOF” (priority 2022, published 2023)", "tested_on": "D. immitis JYD-34 (macrocyclic lactone resistant isolate)", "parameters": "species or system Dirofilaria immitis", "details": "in vivo", "note": "Values joined by “and” are separate entries in the source; they are usually repeats but may differ in a detail not shown here. Identical values can stand only once.", "data": [{"substance": "Milbemycin oxime [MBO]", "values": [{"measurement": "JYD-34 heartworms among recovered worms, all seven dogs in Group 4", "value": 100, "unit": "%"}, {"measurement": "Number of JYD-34 Worms", "value": "18 and 15 and 21 and 22 and 14 and 20"}, {"measurement": "Percentage of JYD-34 Worms", "setting": "po", "value": 100, "unit": "%"}]}]}
